From PMC7957705 (Molecules, 2021)
Read-outs that look alike come from different tables or passages of the source. Where a SMILES comes first, the peptide text is derived from it. Bridges are numbered along the chain shown (N, C = ends). Triazole bridges read from a SMILES are 1,4-linked. [ ]: non-standard residue; d: D form. The star is where a group is joined. Benzoyl(4-guanidino) = N=C(N)Nc1ccc(C(=O)*)cc1; Aha = [N-]=[N+]=NCC[C@H](N)C(=O)O; β3hV = CC(C)[C@H](N)CC(=O)O; Nle = CCCC[C@H](N)C(=O)O; Pra = C#CC[C@H](N)C(=O)O

Columns and labels:
[1] = system: high-fat diet-induced obese C57BL/6 mice; assay: Diet-induced obesity model: food and water intake; type: in vivo, mouse; settings: 5 and 10 mg/kg i.p. once daily, HFD mice
Protocol: (§1) Male C57BL/6 mice at 4 weeks of age were provided by BioLasco Taiwan (under Charles River Laboratories Licensee). All animals were maintained in an environment with well-controlled temperature (20–24 °C) and humidity (30–70%) with 12 h light/dark cycles. Free access to standard lab diet (MFG (Oriental Yeast Co., Ltd., Japan)) and autoclaved tap water was granted. […]
(§2) The protocol was performed for all groups and all animals. […] Body weight was recorded three times weekly from Week 9. Food/water intake was recorded twice weekly from Week 9. […] At the termination in Week 20 (Day 141), the adipose tissue weight, including epididymal, mesenteric, inguinal, retroperitoneal, and brown fat, was measured after the animals were sacrificed. […] The following parameters were measured: (1) body weight three times weekly; (2) food/water intake twice weekly; (3) blood chemistry in Weeks 8 (before dosing), 16 and 20 including glucose, insulin, serum lipids (triglycerides (TG), total cholesterol (TC), AST, alanine aminotransferase (ALT), uric acid, creatinine, potassium and sodium through 16-h fasting animals; and finally, (4) total body fat (including visceral and subcutaneous fat) in Week 20.

[2] = system: high-fat diet-induced obese C57BL/6 mice; settings: mouse, in vivo
Protocol: as §1, §2

[3] = type: in vitro ADME; settings: for half-life: plasma
Protocol: Plasmas from 3 species (including commercially available human healthy donors) were adjusted to pH 7.4 if necessary. Incubations were performed at a concentration of 1 µM of the compound at 37 °C (in the presence of a final concentration of DMSO of 2.5% v/v. The incubations were stopped at 0, 15, 30, 60 and 120 min by methanol. Each time point was run in sextuplets. The sampling plates were then centrifuged (2500 rpm, 45 min, 4 °C) and the supernatants pooled. Samples were analyzed for parent compound by LC-MS/MS. The percentage of parent compound remaining at each time point relative to the 0 min sample is then calculated from LC-MS/MS peak area ratios. Then, the stability in plasma was evaluated by incubating human, rat or mouse plasma with the compound(s) as follows: the product (0.1 µM in TRIS buffer pH 7.4 0.1% BSA) was incubated with the plasma at 37 °C. The disappearance of the product was measured at 15, 45, 120, 240 and 300 min by mass spectrometry. Incubations were carried out in a robot Star (Hamilton France, Villebon-sur-Yvette, France). At each sampling time, 50 µL of the reaction medium was removed and diluted with 100 µL of acetonitrile. After centrifugation (20 min at + 4 °C, 4000 rpm), 75 µL of the supernatants was transferred into a 384 well injection plate. Ten microliters were injected onto UPLC coupled with a XEVO TQS mass spectrometer system (Waters, Milford, MA, USA). The unchanged product is quantified using a reference sample (0.1 µM) prepared during the incubation process. A second reference sample at 0.01 µM is prepared in the same conditions to verify the linearity of the detection method. The peak height (or area) is measured to calculate the half-life of the compound.

For CCCC[C@@H]1NC(=O)[C@@H](NC(=O)c2ccc(NC(=N)N)cc2)CCn2cc(nn2)C[C@@H](C(=O)N[C@@H](Cc2c[nH]c3ccccc23)C(=O)O)NC(=O)[C@@H]2CCCN2C(=O)[C@H](CCCNC(=N)N)NC(=O)C[C@H](C(C)C)NC(=O)[C@H](CCCNC(=N)N)NC(=O)[C@H](CC(C)C)NC1=O [GPS18169] ({Benzoyl(4-guanidino)}-[Aha][Nle]LR[β3hV]RP[Pra]W-OH; triazole 1-8), the “food intake, treated vs vehicle” value [1] was “no change”, the “water intake, treated vs vehicle” value [1] was “no change” and the “overt toxicities and behavioral modifications” value [2] was “Neither overt toxicities nor behavioral modifications were observed”. The half-life ([3]; human) was at least 5 h, the “initial dose remaining after incubation in mice plasma” value ([3]; mouse) was “about 50%” and the half-life ([3]; mouse) was 2.92 ± 0.283 h. It also gave a half-life ([3]; rat) of at least 5 h.
